Assay results: ChEMBL document CHEMBL5038640, “Natural Berberine-derived Azolyl Ethanols as New Structural Antibacterial Agents against Drug-Resistant Escherichia coli” (J Med Chem, 2022)

Assays:
[1] = tested on: Acinetobacter baumannii; assay: Antibacterial activity against Acinetobacter baumannii assessed as decrease in bacterial growth incubated for 18 hrs by broth microdilution method; type: functional
[2] = tested on: Staphylococcus aureus; assay: Antibacterial activity against methicillin-resistant Staphylococcus aureus N315 assessed as decrease in bacterial growth incubated for 18 hrs by broth microdilution method; type: functional
[3] = tested on: Escherichia coli; assay: Antibacterial activity against Escherichia coli ATCC 25922 assessed as decrease in bacterial growth incubated for 18 hrs by broth microdilution method; type: functional
[4] = tested on: Klebsiella pneumoniae; assay: Antibacterial activity against Klebsiella pneumoniae assessed as decrease in bacterial growth incubated for 18 hrs by broth microdilution method; type: functional
[5] = tested on: Staphylococcus aureus; assay: Antibacterial activity against Staphylococcus aureus ATCC 25923 assessed as decrease in bacterial growth incubated for 18 hrs by broth microdilution method; type: functional
[6] = tested on: Staphylococcus aureus; assay: Antibacterial activity against Staphylococcus aureus ATCC 29213 assessed as decrease in bacterial growth incubated for 18 hrs by broth microdilution method; type: functional
[7] = tested on: Staphylococcus aureus; assay: Antibacterial activity against Staphylococcus aureus assessed as decrease in bacterial growth incubated for 18 hrs by broth microdilution method; type: functional
[8] = tested on: Enterococcus faecalis; assay: Antibacterial activity against Enterococcus faecalis assessed as decrease in bacterial growth incubated for 18 hrs by broth microdilution method; type: functional
[9] = tested on: Pseudomonas aeruginosa; assay: Antibacterial activity against Pseudomonas aeruginosa assessed as decrease in bacterial growth incubated for 18 hrs by broth microdilution method; type: functional
[10] = Aqueous solubility of the compound in saline; type: physicochemical
[11] = tested on: Escherichia coli; assay: Antibacterial activity against Escherichia coli assessed as decrease in bacterial growth incubated for 18 hrs by broth microdilution method; type: functional
[12] = tested on: Pseudomonas aeruginosa; assay: Antibacterial activity against Pseudomonas aeruginosa ATCC 27853 assessed as decrease in bacterial growth incubated for 18 hrs by broth microdilution method; type: functional

Structure (SMILES) | MIC [1] [µM] | MIC [2] [µM] | MIC [3] [µM] | MIC [4] [µM] | MIC [5] [µM] | MIC [6] [µM] | MIC [7] [µM] | MIC [8] [µM] | MIC [9] [µM] | solubility [10] [µM] | MIC [11] [µM] | MIC [12] [µM]
COc1ccc2cc3[n+](cc2c1OCC(O)Cn1cnnc1)CCc1cc2c(cc1-3)OCO2.[Br-] (configuration not stated) | 243 | 243 | 243 | 121 | 243 | 243 | 243 | 243 | 243 | 1100 | 121 | 121
COc1ccc2cc3[n+](cc2c1OC)CCc1cc2c(cc1-3)OCO2 [BERBERINE] | 1380 | 689 | 172 | 172 | 344 | 172 | 344 | 344 | 344 | 751 | 344 | 344
COc1ccc2cc3[n+](cc2c1OCC(O)CN1CCNCC1)CCc1cc2c(cc1-3)OCO2.[Br-] (configuration not stated) | 118 | 59 | 235 | 15 | 235 | 118 | 118 | 118 | 15 | 3810 | 118 | 118
COc1ccc2cc3[n+](cc2c1OCC(O)CN(CCO)CCO)CCc1cc2c(cc1-3)OCO2.[Br-] (configuration not stated) | 114 | 57 | 114 | 227 | 227 | 28 | 14 | 114 | 114 | 4240 | 114 | 114
COc1ccc2cc3[n+](cc2c1OCC(O)CSc1nccn1C)CCc1cc2c(cc1-3)OCO2.[Br-] (configuration not stated) | 56 | 56 | 112 | 112 | 56 | 112 | 112 | 56 | 112 | 791 | 28 | 112
COc1ccc2cc3[n+](cc2c1OCC(O)Cn1cnc2ccccc21)CCc1cc2c(cc1-3)OCO2.[Br-] (configuration not stated) | 56 | 56 | 56 | 56 | 56 | 56 | 111 | 56 | 111 | 1720 | 28 | 56
COc1ccc2cc3[n+](cc2c1OCC(O)Cn1cnc2cc(Br)ccc21)CCc1cc2c(cc1-3)OCO2.[Br-] (configuration not stated) | 98 | 24 | 98 | 24 | 98 | 98 | 98 | 98 | 98 | 774 | 49 | 98
COc1ccc2cc3[n+](cc2c1OCC(O)CSc1nc2ccccc2[nH]1)CCc1cc2c(cc1-3)OCO2.[Br-] (configuration not stated) | 26 | 53 | 105 | 53 | 53 | 53 | 105 | 53 | 105 | 783 | 53 | 53
COc1ccc2cc3[n+](cc2c1OCC(O)CN1CCCC1)CCc1cc2c(cc1-3)OCO2.[Br-] (configuration not stated) | 121 | 121 | 121 | 242 | 121 | 121 | 60 | 121 | 121 | 2340 | 242 | 121
CCN(CCO)CC(O)COc1c(OC)ccc2cc3[n+](cc12)CCc1cc2c(cc1-3)OCO2.[Br-] (configuration not stated) | 468 | 468 | 234 | 468 | 468 | 234 | 468 | 468 | 468 | 3720 | 234 | 468
COc1ccc2cc3[n+](cc2c1OCC(O)Cn1ccnc1)CCc1cc2c(cc1-3)OCO2.[Br-] (configuration not stated) | 61 | 61 | 124 | 61 | 124 | 124 | 124 | 124 | 124 | 1800 | 61 | 124
